Literature values as cited in EP1033131B1, “Composition in the form of a drink having a delayed alcohol aversion effect” (Semenov, Sergei Petrovich, priority 1997, dated 1999).

What was measured:
[1] = for Anregungseffekt der Alkoholwirkung / alkoholische Anregung: result in words
[2] = in vivo
Ratten = settings: in vivo
Cholinesterase = settings: factor of reduction

Compound	Dauer des narkotischen Effekts des Alkohols [2]	Verlaufsschwere des Alkoholentzugssyndroms (Ratten)	Anregungseffekt der Alkoholwirkung / alkoholische Anregung [1]	other results
2,6-Diethylester der Ascorbinsäure	vermindert	vermindert		Stärke der alkoholischen Anregung, vermindert mit dem Quotienten ([1]; factor of reduction): 4; Eintreten der Anregungsphase ([1]; in vivo): verlangsamt; Dauer der alkoholischen Anregung, vermindert um ([1]; percent reduction): 25%
3,6-Diethylester der Ascorbinsäure	vermindert			
CCOC(=O)C(O)=C(O)C(O)C(O)CO (centres unmarked) [1-Ethylester der Ascorbinsäure]			vermindern	Zeitraum der Anregung, verkürzt mit dem Quotienten ([1]; factor of shortening): 2; Aktivität der Cholinesterase, vermindert mit dem Quotienten (Cholinesterase): > 2
CCOC1=C(OCC)C(C(O)CO)OC1=O (centres unmarked) [2,3-Diethylester der Ascorbinsäure]		vermindert	beeinflusst	
